Here are results for 33 molecules from US10610520B2, “Heterocyclic compound” (Takeda Pharmaceutical Company Limited, priority 2016, dated 2020).

The target of this test is T1, His-hMAGL (recombinant polyhistidine tagged human MAGL protein) (Homo sapiens, UniProt Q99685).
T1 construct: made in house; host or cells: E. coli BL21(DE3)
T1 sequence (Q99685 1-303): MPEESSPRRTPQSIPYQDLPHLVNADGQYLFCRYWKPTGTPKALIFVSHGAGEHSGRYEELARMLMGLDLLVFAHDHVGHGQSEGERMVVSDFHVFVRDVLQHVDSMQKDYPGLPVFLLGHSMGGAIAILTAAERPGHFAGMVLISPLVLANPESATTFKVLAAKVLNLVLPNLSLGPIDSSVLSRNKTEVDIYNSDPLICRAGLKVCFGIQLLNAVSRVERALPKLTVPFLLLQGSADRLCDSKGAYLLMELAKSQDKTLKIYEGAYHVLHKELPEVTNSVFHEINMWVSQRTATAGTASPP
Nature of the test: Measurement of MAGL inhibitory activity (arachidonic acid production from 2-arachidonylglycerol, RapidFire-mass spectrometry). The class given is biochemical. The following applies: MAGL inhibitory rate, test compound 10 μM, 60 min preincubation, 2-arachidonylglycerol substrate. Put shortly:
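Arachidonic acid formed was quantified by online solid-phase extraction and triple-quadrupole MS in negative SRM mode against a d8 internal standard. Reaction: recombinant His-hMAGL (7.5 ng/mL, pH 7.5 Tris buffer with Triton X-100 and BSA) plus 2-AG (5 μL of 150 μM stock) for 10 min at room temperature, quenched with 2% formic acid. Percent inhibition corrected for enzyme-free background.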

`O=C1CCC2(CN(C(=O)c3cc4ccc(Cl)cc4s3)C2)N1` [Example 147, 2-((6-chloro-1-benzothiophen-2-yl)carbonyl)-2,5-diazaspiro[3.4]octan-6-one]: the inhibition at 10 µM was found to be 83%.

As to `O=C1CCC2(CN(C(=O)c3cc4cc(OCc5ccc(Cl)cc5Cl)ccc4s3)C2)N1` [Example 149, 2-((5-((2,4-dichlorobenzyl)oxy)-1-benzothiophen-2-yl)carbonyl)-2,5-diazaspiro[3.4]octan-6-one], the inhibition at 10 µM was 83%.

`O=C1CCC2(CN(C(=O)c3cc4cc(-c5ccc(Cl)cc5)ccc4s3)C2)N1` [Example 150, 2-((5-(4-chlorophenyl)-1-benzothiophen-2-yl)carbonyl)-2,5-diazaspiro[3.4]octan-6-one]: the inhibition at 10 µM came to 83%.

Take `Cc1c(C(=O)N2CC3(CCC(=O)N3)C2)sc2ccc([N+](=O)[O-])cc12` [Example 151, 2-((3-methyl-5-nitro-1-benzothiophen-2-yl)carbonyl)-2,5-diazaspiro[3.4]octan-6-one]: the inhibition at 10 µM came out at 93%.

As to `COc1ccc2sc(C(=O)N3CC4(CCC(=O)N4)C3)c(Br)c2c1` [Example 152, 2-((3-bromo-5-methoxy-1-benzothiophen-2-yl)carbonyl)-2,5-diazaspiro[3.4]octan-6-one], the inhibition at 10 µM was found to be 100%.

As for `O=C1CCC2(CN(C(=O)c3cc4ccc(-c5ccc(Cl)cc5)cc4o3)C2)N1` [Example 169, 2-((6-(4-chlorophenyl)-1-benzofuran-2-yl)carbonyl)-2,5-diazaspiro[3.4]octan-6-one], the inhibition at 10 µM amounted to 80%.

With `O=C1CCC2(CN(C(=O)c3ccc(-c4cccc(OCC(F)(F)F)c4)cc3)C2)N1` [Example 170, 2-((3′-(2,2,2-trifluoroethoxy)biphenyl-4-yl)carbonyl)-2,5-diazaspiro[3.4]octan-6-one], the inhibition at 10 µM amounted to 99%.

For the molecule `O=C1CCC2(CN(C(=O)c3ccc(-c4cccc(OCC5CC5)c4)cc3)C2)N1` [Example 171, 2-((3′-(cyclopropylmethoxy)biphenyl-4-yl)carbonyl)-2,5-diazaspiro[3.4]octan-6-one], the inhibition at 10 µM turned out to be 98%.

In the case of `O=C1CCC2(CN(C(=O)c3ccc(-c4ccccc4)cc3OC(F)(F)F)C2)N1` [Example 172, 2-((3-(trifluoromethoxy)biphenyl-4-yl)carbonyl)-2,5-diazaspiro[3.4]octan-6-one], the inhibition at 10 µM stood at 88%.

Consider `O=C1CCC2(CN(C(=O)[C@H]3CC[C@H](c4ccc(O)cc4)CC3)C2)N1` [Example 173, 2-((trans-4-(4-hydroxyphenyl)cyclohexyl)carbonyl)-2,5-diazaspiro[3.4]octan-6-one], for which the inhibition at 10 µM was 92%.

With `O=C1CCC2(CN(C(=O)c3ccc4scc(-c5ccc(F)cc5)c4c3)C2)N1` [Example 175, 2-((3-(4-fluorophenyl)-1-benzothiophen-5-yl)carbonyl)-2,5-diazaspiro[3.4]octan-6-one], the inhibition at 10 µM was found to be 88%.

For `O=C1CCC2(CN(C(=O)c3sc4cc(OC(F)(F)F)ccc4c3Cl)C2)N1` [Example 176, 2-((3-chloro-6-(trifluoromethoxy)-1-benzothiophen-2-yl)carbonyl)-2,5-diazaspiro[3.4]octan-6-one], the inhibition at 10 µM is 99%.

`O=C1CCC2(CN(C(=O)c3sc(-c4cccc(C(F)(F)F)c4)cc3Cl)C2)N1` [Example 177, 2-((3-chloro-5-(3-(trifluoromethyl)phenyl)-2-thienyl)carbonyl)-2,5-diazaspiro[3.4]octan-6-one]: the inhibition at 10 µM came to 98%.

Take `O=C1CCC2(CN(C(=O)c3sc(-c4cccc(OCC(F)(F)F)c4)cc3Cl)C2)N1` [Example 178, 2-((3-chloro-5-(3-(2,2,2-trifluoroethoxy)phenyl)-2-thienyl)carbonyl)-2,5-diazaspiro[3.4]octan-6-one]: the inhibition at 10 µM worked out at 100%.

Turning to `O=C1CCC2(CN(C(=O)c3sc4cc(C5=CCC(F)(F)CC5)ccc4c3Cl)C2)N1` [Example 179, 2-((3-chloro-6-(4,4-difluorocyclohex-1-en-1-yl)-1-benzothiophen-2-yl)carbonyl)-2,5-diazaspiro[3.4]octan-6-one], the inhibition at 10 µM stood at 100%.

Take `O=C1CCC2(CN(C(=O)c3sc(-c4ccccc4C(F)(F)F)cc3Cl)C2)N1` [Example 180, 2-((3-chloro-5-(2-(trifluoromethyl)phenyl)-2-thienyl)carbonyl)-2,5-diazaspiro[3.4]octan-6-one]: the inhibition at 10 µM is 87%.

Regarding `O=C1CCC2(CN(C(=O)c3sc(-c4cccc(OCC5CC5)c4)cc3Cl)C2)N1` [Example 182, 2-((3-chloro-5-(3-(cyclopropylmethoxy)phenyl)-2-thienyl)carbonyl)-2,5-diazaspiro[3.4]octan-6-one], the inhibition at 10 µM came to 98%.

As for `Cc1ccc(-c2ccc3c(Cl)c(C(=O)N4CC5(CCC(=O)N5)C4)sc3c2)cc1` [Example 184, 2-((3-chloro-6-(4-methylphenyl)-1-benzothiophen-2-yl)carbonyl)-2,5-diazaspiro[3.4]octan-6-one], the inhibition at 10 µM worked out at 99%.

Consider `Cc1ccccc1-c1ccc2c(Cl)c(C(=O)N3CC4(CCC(=O)N4)C3)sc2c1` [Example 185, 2-((3-chloro-6-(2-methylphenyl)-1-benzothiophen-2-yl)carbonyl)-2,5-diazaspiro[3.4]octan-6-one], for which the inhibition at 10 µM was 99%.

For `Cc1cccc(-c2ccc3c(Cl)c(C(=O)N4CC5(CCC(=O)N5)C4)sc3c2)c1` [Example 186, 2-((3-chloro-6-(3-methylphenyl)-1-benzothiophen-2-yl)carbonyl)-2,5-diazaspiro[3.4]octan-6-one], the inhibition at 10 µM came out at 101%.

With `CC(C)c1ccc(-c2ccc3c(Cl)c(C(=O)N4CC5(CCC(=O)N5)C4)sc3c2)cc1` [Example 187, 2-((3-chloro-6-(4-isopropylphenyl)-1-benzothiophen-2-yl)carbonyl)-2,5-diazaspiro[3.4]octan-6-one], the inhibition at 10 µM was 94%.

`CC(C)c1cccc(-c2ccc3c(Cl)c(C(=O)N4CC5(CCC(=O)N5)C4)sc3c2)c1` [Example 188, 2-((3-chloro-6-(3-isopropylphenyl)-1-benzothiophen-2-yl)carbonyl)-2,5-diazaspiro[3.4]octan-6-one]: the inhibition at 10 µM came to 99%.

`CC(C)c1ccccc1-c1ccc2c(Cl)c(C(=O)N3CC4(CCC(=O)N4)C3)sc2c1` [Example 189, 2-((3-chloro-6-(2-isopropylphenyl)-1-benzothiophen-2-yl)carbonyl)-2,5-diazaspiro[3.4]octan-6-one]: the inhibition at 10 µM was found to be 100%.

For `O=C1CCC2(CN(C(=O)c3sc4cc(-c5cccc(Cl)c5)ccc4c3Cl)C2)N1` [Example 190, 2-((3-chloro-6-(3-chlorophenyl)-1-benzothiophen-2-yl)carbonyl)-2,5-diazaspiro[3.4]octan-6-one], the inhibition at 10 µM was 99%.

Take `O=C1CCC2(CN(C(=O)c3sc4cc(-c5ccc(Cl)cc5)ccc4c3Cl)C2)N1` [Example 191, 2-((3-chloro-6-(4-chlorophenyl)-1-benzothiophen-2-yl)carbonyl)-2,5-diazaspiro[3.4]octan-6-one]: the inhibition at 10 µM came to 97%.

For the molecule `O=C1CCC2(CN(C(=O)c3sc4cc(-c5ccccc5Cl)ccc4c3Cl)C2)N1` [Example 192, 2-((3-chloro-6-(2-chlorophenyl)-1-benzothiophen-2-yl)carbonyl)-2,5-diazaspiro[3.4]octan-6-one], the inhibition at 10 µM turned out to be 100%.

Regarding `COc1ccc(-c2ccc3c(Cl)c(C(=O)N4CC5(CCC(=O)N5)C4)sc3c2)cc1` [Example 193, 2-((3-chloro-6-(4-methoxyphenyl)-1-benzothiophen-2-yl)carbonyl)-2,5-diazaspiro[3.4]octan-6-one], the inhibition at 10 µM is 100%.

On to `COc1cccc(-c2ccc3c(Cl)c(C(=O)N4CC5(CCC(=O)N5)C4)sc3c2)c1` [Example 194, 2-((3-chloro-6-(3-methoxyphenyl)-1-benzothiophen-2-yl)carbonyl)-2,5-diazaspiro[3.4]octan-6-one], for which the inhibition at 10 µM stood at 100%.

As for `COc1ccccc1-c1ccc2c(Cl)c(C(=O)N3CC4(CCC(=O)N4)C3)sc2c1` [Example 195, 2-((3-chloro-6-(2-methoxyphenyl)-1-benzothiophen-2-yl)carbonyl)-2,5-diazaspiro[3.4]octan-6-one], the inhibition at 10 µM turned out to be 100%.

On to `O=C1CCC2(CN(C(=O)c3sc4cc(-c5cccc(C(F)(F)F)c5)ccc4c3Cl)C2)N1` [Example 196, 2-((3-chloro-6-(3-(trifluoromethyl)phenyl)-1-benzothiophen-2-yl)carbonyl)-2,5-diazaspiro[3.4]octan-6-one], for which the inhibition at 10 µM worked out at 99%.

For the molecule `O=C1CCC2(CN(C(=O)c3sc4cc(-c5ccc(C(F)(F)F)cc5)ccc4c3Cl)C2)N1` [Example 197, 2-((3-chloro-6-(4-(trifluoromethyl)phenyl)-1-benzothiophen-2-yl)carbonyl)-2,5-diazaspiro[3.4]octan-6-one], the inhibition at 10 µM is 90%.

With `O=C1CCC2(CN(C(=O)c3sc4cc(-c5ccccc5OC(F)(F)F)ccc4c3Cl)C2)N1` [Example 199, 2-((3-chloro-6-(2-(trifluoromethoxy)phenyl)-1-benzothiophen-2-yl)carbonyl)-2,5-diazaspiro[3.4]octan-6-one], the inhibition at 10 µM is 100%.

As to `O=C1CCC2(CN(C(=O)c3sc4cc(-c5ccc(OC(F)(F)F)cc5)ccc4c3Cl)C2)N1` [Example 200, 2-((3-chloro-6-(4-(trifluoromethoxy)phenyl)-1-benzothiophen-2-yl)carbonyl)-2,5-diazaspiro[3.4]octan-6-one], the inhibition at 10 µM came out at 94%.
